Test results reported in patent US20130123365A1, “USE OF FTS AND ANALOGS TO TREAT NON-AUTOIMMUNE-ALLERGIC AND NON-ALLERGIC INFLAMMATORY CONDITIONS” (RAMOT AT TEL-AVIV UNIVERSITY LTD., priority 2010, published 2013).

How the values were obtained:
LAD2 cells [1] = assay: Mast cell degranulation (β-hexosaminidase secretion) after FCεRI cross-linking; format: cell-based, human; settings: 20 minutes after stimulation
Protocol: (§1) The LAD2 MC, expressing functional FCεRI receptors, were established from bone marrow aspirates of a patient with MC leukemia and maintained as previously described. Transfection of LAD2 cells was performed with DMRIE-C (Invitrogen, Carlsbad, Calif.), and cells were studied 24 hours later. For IgE-mediated activation, cells were sensitized overnight with 100 ng/ml of human myeloma IgE-biotin (Calbiochem; Merck Darmstadt, Germany) and then stimulated with 100 ng/ml of streptavidin (Jackson Immuno-Research Laboratories, West Grove, Pa.). Degranulation was quantified 20 minutes after stimulation by assaying the release of ε-hexosaminidase, a preformed mediator present in the secretory granules of MC. Release of ε-hexosaminidase was measured spectrophotometrically by assaying the cleavage of its substrate p-nitrophenyl-N-acetyl-ε-D-glucosaminide. Degranulation was expressed as a percentage of total ε-hexosaminidase activity in the cells, obtained by lysis of the cells with 0.5% triton X-100. Supernatants obtained from MC stimulated for 3 to 6 hours were examined for the released PGD2 and TNF-α by a commercial ELISA kits, according to the manufacturer's instructions (Prostaglandin D2-MOX EIA Kit, Cayman Chemical Company, Ann Arbor, Mich., and TNF-α HS Elisa kit, R&D® Systems Inc., Minneapolis, Minn.).

N-Ras = biological target: T1, N-Ras (Homo sapiens, UniProt P01111); assay: Ras activation imaging: GFP-Raf-1-RBD probe translocation in LAD2 cells after FCεRI cross-linking; format: cell-based; settings: LAD2 cells expressing RFP-N-Ras, pretreated with 25 μM FTS
T1 construct: expressed in transfected cells; host or cells: LAD2 human mast cell line
Protocol: The LAD2 MC, expressing functional FCεRI receptors, were established from bone marrow aspirates of a patient with MC leukemia and maintained as previously described. Transfection of LAD2 cells was performed with DMRIE-C (Invitrogen, Carlsbad, Calif.), and cells were studied 24 hours later.
as §1, with “For” for “The LAD2 MC, expressing functional FCεRI receptors, were established from bone marrow aspirates of a patient with MC leukemia and maintained as previously described. Transfection of LAD2 cells was performed with DMRIE-C (Invitrogen, Carlsbad, Calif.), and cells were studied 24 hours later. For”
Live cells were plated in 35-mm dishes containing a no. […]

LAD2 cells [2] = assay: TNF-α release from stimulated mast cells (ELISA); format: cell-based, human; settings: different concentrations of FTS, 3 hours after stimulation, dose dependent, p<0.05
Protocol: as §1

Ras = assay: Raf-1-RBD pull-down assay of GTP loaded Ras in stimulated LAD2 cells; format: cell-based, human; settings: FCεRI cross-linking, pretreated with 25 μM FTS
Protocol: as §1, with “For” for “The LAD2 MC, expressing functional FCεRI receptors, were established from bone marrow aspirates of a patient with MC leukemia and maintained as previously described. Transfection of LAD2 cells was performed with DMRIE-C (Invitrogen, Carlsbad, Calif.), and cells were studied 24 hours later. For”, “Minn.). Methods of detecting activated Ras by pull-down assay and by SDS-PAGE immunoblotting were performed as previously described.” for “Minn.).”

BALB/c female mice = assay: IgE-dependent passive cutaneous anaphylaxis reaction, footpad swelling; format: in vivo; settings: oral 100 mg/kg
Protocol: The study was approved by the Institutional Ethics Committee of Tel Aviv University. 8-10 weeks old BALB/c female mice were primed to express an IgE-dependent passive cutaneous anaphylaxis (PCA) reaction. Mice were lightly anaesthetized with ether and their left footpads were injected subcutaneously with 20 ul (20 ng) of IgE anti DNP. Their right footpads were injected with 20 ul of diluents. The next day the mice received an intraperitoneal injection of 100 ug of DNP30-40-HAS in saline. Footpad swelling was measured with an engineer's micrometer (Ozaki Mfg. Co., Itabashi, Tokyo). Footpad swelling was expressed as the difference in thickness before and after the challenge, measured at several time points after the challenge. FTS was orally administrated before the antigen challenge at 100 mg/kg as previously described.

LAD2 cells [3] = assay: PGD2 release from stimulated mast cells (ELISA); format: cell-based, human; settings: 6 hours after stimulation
Protocol: as §1

T1 sequence (P01111 whole entry, species assumed): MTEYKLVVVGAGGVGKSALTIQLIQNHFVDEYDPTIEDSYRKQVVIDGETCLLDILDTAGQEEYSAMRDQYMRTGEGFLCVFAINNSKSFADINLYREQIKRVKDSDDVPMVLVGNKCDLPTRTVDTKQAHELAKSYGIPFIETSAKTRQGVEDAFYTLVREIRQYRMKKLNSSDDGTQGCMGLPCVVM

translocation of the probe for activated Ras (GFP-Raf-1-RBD) to the plasma membrane (N-Ras): completely blocked
SMILES: CC(C)=CCCC(C)=CCCC(C)=CCSc1ccccc1C(=O)O [FTS, S-farnesylthiosalicylic acid]
immunological degranulation (β-hexosaminidase secretion) (LAD2 cells [1]; 25 μM FTS): did not significantly modify | immunological degranulation (β-hexosaminidase secretion) (LAD2 cells [1]; 50 μM FTS): did not significantly modify | TNF-α release (LAD2 cells [2]): appreciably inhibited | levels of GTP loaded Ras (Ras): significantly attenuated | relative reduction in the amount of activated Ras (Ras; n=4): approximately 35% | tissue (footpad) swelling (BALB/c female mice; three hours after antigen challenge): inhibited tissue swelling | attenuation of tissue (footpad) swelling (BALB/c female mice; three to six hours after antigen challenge): ~40% | release of PGD2 (LAD2 cells [3]; 25 μM FTS): not | release of PGD2 (LAD2 cells [3]; 50 μM FTS): inhibited
